Data published in PubChem BioAssay (NCI).
In brackets after ≈: the same amount, converted by molar mass.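 Briefly, cells in 96-well plates were exposed to five compound concentrations for 48 h, and endpoints were estimated by linear interpolation. GI50: concentration for 50% inhibition of growth. TGI marks complete inhibition of growth.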

Columns and labels:
Experiment in all cases: DTP human tumour cell line panel, 48 h
[1] = tested on: SK-OV-3 ovarian
[2] = tested on: RXF 393 renal
[3] = tested on: NCI/ADR-RES ovarian
[4] = tested on: K-562 leukemia
[5] = tested on: KM12 colon
[6] = tested on: MCF7 breast
[7] = tested on: NCI-H522 lung
[8] = tested on: SN12C renal
[9] = tested on: UACC-257 melanoma
[10] = tested on: LOX IMVI melanoma
[11] = tested on: OVCAR-4 ovarian
[12] = tested on: SK-MEL-2 melanoma
[13] = tested on: CAKI-1 renal
[14] = tested on: SF-539 CNS
[15] = tested on: IGROV1 ovarian
[16] = tested on: EKVX NSCLC

SMILES | TGI [1] | TGI [2] | TGI [3] | TGI [4] | TGI [5] | TGI [6] | TGI [7] | TGI [8] | TGI [9] | TGI [10] | TGI [11] | TGI [12] | TGI [13] | TGI [14] | TGI [15] | TGI [16] | GI50 [12] | GI50 [5] | GI50 [6]
CC1(C)OCC(CO)(CO)CO1 | > 100 µM | > 100 µM | > 100 µM | > 100 µM | > 100 µM | > 100 µM | > 100 µM | > 100 µM | > 100 µM | > 100 µM | > 100 µM |  |  |  |  |  |  |  | 
Cc1cc(=O)oc2c1cc1ccc3cccc4ccc2c1c34 | > 100 µM |  |  | > 100 µM |  |  | > 100 µM | > 100 µM |  | > 100 µM |  | > 100 µM | > 100 µM | > 100 µM | > 100 µM | > 100 µM |  |  | 
O=C=C=P(c1ccccc1)(c1ccccc1)c1ccccc1 | > 100 µM | > 100 µM |  | > 100 µM | > 100 µM |  |  | > 100 µM | > 100 µM | > 100 µM | > 100 µM | > 100 µM | > 100 µM | > 100 µM | > 100 µM | > 100 µM |  |  | 
ICC1CCCO1 (centres undefined) |  | > 100 µM |  |  | > 100 µM |  |  | > 100 µM | > 100 µM | > 100 µM | > 100 µM | > 100 µM | > 100 µM | > 100 µM | > 100 µM | > 100 µM |  |  | 
O=Cc1cn(CCCCCCCCn2cc(C=O)c3ccccc32)c2ccccc12 | > 10 µM | > 10 µM | > 10 µM | > 10 µM | > 10 µM | > 10 µM | > 10 µM | > 10 µM |  | > 10 µM | > 10 µM | > 10 µM | > 10 µM | > 10 µM | > 10 µM | > 10 µM |  |  | 
CC(=O)[O-].CC(=O)[O-].O=C(N/N=C/c1cc(Cl)cc(Cl)c1[OH2+])c1ccncc1.[Mn+2] | 51.1 µM | 20.7 µM |  | 14.8 µM | 23.8 µM |  | 14.8 µM | 21.2 µM | 14.7 µM | 15.2 µM |  | 8.38 µM |  | 13.4 µM | 10.7 µM | 7.76 µM | 3.85 µM |  | 
Cc1cc(O)c2c(c1)C(=O)c1c(c(O)cc(O)c1-c1c(O)cc(O)c3c1C(=O)c1cc(C)cc(O)c1C3=O)C2=O | 62.6 µM | 76.5 µM | 152 µM | 55.6 µM | 64.2 µM | 48.8 µM | 59 µM | 41.2 µM | 50 µM | 50.2 µM | 26.9 µM | 40.7 µM | 51.4 µM | 36.6 µM | 52.6 µM | 34.9 µM |  |  | 
CC(C)c1oc(=O)cc2c1C(O)C1OC(=O)C3(C)C(O)C4OC4C2(C)C13 (centres undefined) | 20.3 µM | 6.8 µM | 96.9 µM | 6.63 µM | 24.9 µM | 5.23 µM | 5.21 µM | 7.05 µM | 10.8 µM | 5.77 µM | 12.4 µM | 7.71 µM | 9.39 µM | 4.19 µM | 20.6 µM | 9.84 µM |  |  | 
Cc1nc2nc(C)n(CCN3CCOCC3)c(=O)c2c(-c2cccc([N+](=O)[O-])c2)c1C(=O)CCCCCCCCCCN1CCC(c2ccccc2)(c2ccccc2)CC1 |  |  |  |  | 4.46 µg/mL | 3.65 µg/mL |  |  |  |  |  | 4.76 µg/mL |  |  |  |  | 2.55 µg/mL | 2.43 µg/mL (≈ 2.99 µM) | 1.67 µg/mL (≈ 2.06 µM)
CC(=O)OCC1(C)C(O)CCC2(C)C1CCC1CC3CC12CCC3(O)CO (centres undefined) | > 100 µM | > 100 µM | > 100 µM | > 100 µM | > 100 µM | > 100 µM | > 100 µM | > 100 µM | > 100 µM | > 100 µM | > 100 µM | > 100 µM | > 100 µM | > 100 µM | > 100 µM | > 100 µM |  |  | 
CCN(CC)CCNc1ccc2ncn3c4ccc(OC)cc4c(=O)c1c23 | 23.8 µM | 7.69 µM | 16.1 µM | 22.7 µM | 7.68 µM | > 100 µM | 21.4 µM | 18.3 µM | 28.3 µM | 4.68 µM | 8.89 µM | 25.4 µM | 21 µM | 20 µM | 28.1 µM | 29.2 µM |  |  | 
c1ccc(C2=NN2c2ccccc2)cc1 | > 100 µM | > 100 µM | > 100 µM | > 100 µM | > 100 µM | > 100 µM | > 100 µM | > 100 µM | > 100 µM | > 100 µM | > 100 µM | > 100 µM | > 100 µM | > 100 µM | > 100 µM | > 100 µM |  |  | 
C=C1CC(OC)(C(OC)C(=O)N[C@H]2OCO[C@H]3C2O[C@H](C[C@@H](COC)OC)C(C)(C)C3OC)O[C@H](C)[C@@H]1C (some centres undefined) | 8.12 µM | 5.38 µM | > 47 µM | 3.38 µM | > 47 µM | > 47 µM |  | > 47 µM | 14.7 µM | > 47 µM | 4.25 µM | 14.9 µM | 3.6 µM | 2.85 µM | 12.3 µM |  |  |  | 
Cc1[nH]c(C)c(CN(C)C)c1CN(C)C | > 100 µM | > 100 µM | > 100 µM | > 100 µM | > 100 µM | > 100 µM | > 100 µM | > 100 µM | > 100 µM | > 100 µM | > 100 µM | > 100 µM | > 100 µM | > 100 µM | > 100 µM | > 100 µM |  |  | 
CN1CCC2(c3ccccc3)CC(=O)/C(=C/c3ccc(Cl)c(Cl)c3)C1C2 (centres undefined) | 13.6 µM | 7.07 µM | 11 µM | 7.28 µM | 4.14 µM | 17.3 µM | 3.6 µM | 3.72 µM | 23.3 µM | 3.34 µM | 7.21 µM | 9.87 µM | 13.8 µM | 4.35 µM | 4.19 µM | 9.63 µM |  |  | 
O=C(O)CCC(NC(=O)c1ccc(Nc2cnc3cc(C(F)(F)F)ccc3n2)cc1)C(=O)O (centres undefined) | > 100 µM | > 100 µM | > 100 µM | > 100 µM | > 100 µM | > 100 µM | > 100 µM | > 100 µM | > 100 µM | > 100 µM | > 100 µM | > 100 µM |  | > 100 µM | > 100 µM | > 100 µM |  |  | 
CCOP(=O)(C/C=C/Cn1ncc(=O)[nH]c1=O)OCC |  | > 100 µM | > 100 µM | > 100 µM | > 100 µM | > 100 µM | > 100 µM | > 100 µM | > 100 µM | > 100 µM | > 100 µM | > 100 µM | > 100 µM | > 100 µM | > 100 µM | > 100 µM |  |  | 
CC1(c2ccccc2)O[C@@H]2C[C@H]3[C@@H]4CCC5=CC(=O)C=C[C@]5(C)[C@@]4(F)[C@@H](O)C[C@]3(C)[C@]2(C(=O)CO)O1 (some centres undefined) |  | 36.3 µM | 36 µM | 34.4 µM | 30 µM | 29.9 µM | 25 µM | 26.1 µM | 33.1 µM | 47.1 µM | 28.3 µM | 28.3 µM | 56 µM |  | 38.7 µM | 30.4 µM |  |  | 
